Test results as given in US10323043B2, “Derivatives of macrocyclic N-aryl-tricyclopyrimidine-2-amine polyethers as inhibitors of FTL3 and JAK” (PIERRE FABRE MEDICAMENT, priority 2014, dated 2019).

What was measured:
FLT3-ITD = molecular target: T1, FLT3-ITD (Homo sapiens, UniProt P36888); assay: LanthaScreen TR-FRET binding test, FLT3-ITD; settings: FLT3-ITD 15 nM, kinase tracer 236 3 nM, 25° C., 1 hour; read-out: Inhibition (IC50) of FLT3-ITD enzyme
T1 construct: FLT3-ITD (#0778-0000-1) and FLT3^D835Y (#14-610) proteins were purchased from ProQinase and Merck Millipore, respectively; fused on or other part: GST tag, inferred from detection with the anti-GST europium antibody
T1 sequence (P36888 1-993): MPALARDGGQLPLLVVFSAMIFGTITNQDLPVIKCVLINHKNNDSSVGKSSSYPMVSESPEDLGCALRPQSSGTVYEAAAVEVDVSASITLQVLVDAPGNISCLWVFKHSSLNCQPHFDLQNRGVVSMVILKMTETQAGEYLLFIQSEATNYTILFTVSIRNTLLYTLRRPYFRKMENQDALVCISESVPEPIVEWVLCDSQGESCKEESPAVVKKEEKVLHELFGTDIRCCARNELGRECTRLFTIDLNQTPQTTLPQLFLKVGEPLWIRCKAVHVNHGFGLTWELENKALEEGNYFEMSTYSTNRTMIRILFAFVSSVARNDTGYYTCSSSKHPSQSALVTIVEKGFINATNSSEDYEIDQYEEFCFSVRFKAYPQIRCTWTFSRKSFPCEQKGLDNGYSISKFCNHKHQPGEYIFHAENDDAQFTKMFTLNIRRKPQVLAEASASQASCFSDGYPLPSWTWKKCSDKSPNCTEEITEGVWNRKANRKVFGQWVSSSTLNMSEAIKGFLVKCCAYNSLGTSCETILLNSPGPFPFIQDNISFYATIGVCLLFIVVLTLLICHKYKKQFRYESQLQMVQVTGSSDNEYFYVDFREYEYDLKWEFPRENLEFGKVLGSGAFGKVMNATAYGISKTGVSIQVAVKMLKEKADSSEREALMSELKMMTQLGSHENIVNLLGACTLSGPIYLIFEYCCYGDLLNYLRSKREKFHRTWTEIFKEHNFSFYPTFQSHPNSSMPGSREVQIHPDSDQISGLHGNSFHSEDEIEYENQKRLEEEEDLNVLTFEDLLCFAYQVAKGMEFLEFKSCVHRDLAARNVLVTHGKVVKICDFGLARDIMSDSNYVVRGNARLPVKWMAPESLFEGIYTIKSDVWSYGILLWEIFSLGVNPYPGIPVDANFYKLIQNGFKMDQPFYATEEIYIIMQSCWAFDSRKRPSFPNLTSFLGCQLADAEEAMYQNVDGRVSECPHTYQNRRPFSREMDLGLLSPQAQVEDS
Experimental: (§1) FLT3 (#PV3182), JAK2 (#PV4210) and JAK3 (#PV3855) recombinant enzymes were purchased from Life Technologies. FLT3-ITD (#0778-0000-1) and FLT3^D835Y (#14-610) proteins were purchased from ProQinase and Merck Millipore, respectively. All the tests were carried out in 384-well plates. The principle of these binding tests is based on the LanthaScreen® TR-FRET methodology from Life Technologies.
(§2) The reaction mixture (15 μL total volume) contains the following compounds: 15 nM FLT3, FLT3-ITD or FLT3^D835Y, 3 nM kinase tracer 236 (Life Technologies, #PV5592) and 6 nM LanthaScreen® anti-GST antibody coupled to a europium chelate (Life Technologies, #PV5594) for FLT3-ITD and FLT3^D835Y or 6 nM LanthaScreen® anti-His antibody coupled to a europium chelate (Life Technologies, #PV5596) for FLT3.
(§3) The compounds are evaluated at 8 different concentrations prepared by making dilutions from a starting 10 mM stock solution in dimethylsulfoxide (DMSO) (Sigma, #D8418). The final DMSO concentration in the test is 1%. The reaction is carried out at 25° C. for 1 hour and detected on the EnVision® reader (Perkin Elmer) according to the recommendations of the supplier, Life Technologies.
(§4) The results are presented (Table 1) as the concentration values of the compound at which 50% of the kinase activity is inhibited, IC50 (μM), generated using the PRISM software (GraphPad).

FLT3 = molecular target: T2, FLT3 (Homo sapiens, UniProt P36888); assay: LanthaScreen TR-FRET binding test, FLT3; settings: recombinant FLT3 15 nM, kinase tracer 236 3 nM, 25° C., 1 hour; read-out: Inhibition (IC50) of FLT3 enzyme
T2 construct: purchased Life Technologies PV3182
T2 sequence (P36888 564-993 limits assumed): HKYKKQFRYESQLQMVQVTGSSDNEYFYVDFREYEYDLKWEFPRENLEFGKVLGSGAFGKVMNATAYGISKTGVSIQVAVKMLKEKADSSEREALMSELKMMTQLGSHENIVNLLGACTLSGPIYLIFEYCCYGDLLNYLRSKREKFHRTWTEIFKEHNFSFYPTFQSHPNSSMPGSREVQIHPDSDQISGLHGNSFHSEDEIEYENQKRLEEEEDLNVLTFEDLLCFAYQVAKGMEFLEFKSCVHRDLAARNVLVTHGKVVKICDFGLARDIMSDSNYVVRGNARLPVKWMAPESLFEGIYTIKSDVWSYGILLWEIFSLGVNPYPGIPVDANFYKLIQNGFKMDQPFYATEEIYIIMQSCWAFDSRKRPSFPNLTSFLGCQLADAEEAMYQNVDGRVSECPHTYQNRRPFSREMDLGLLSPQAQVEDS
Experimental: as §1, §2, §3, §4

| SMILES | IC50 (FLT3-ITD) | IC50 (FLT3) |
| --- | --- | --- |
| c1cc(N2C[C@H]3C[C@@H]2CN3)c2cc1Nc1ncc3c(n1)-c1cc(ccc1CC3)OCCOCCO2 [Compound 44] | 1.5 nM | 5.2 nM |
| c1cc(OCCN2CCCC2)c2cc1Nc1ncc3c(n1)-c1cc(ccc1CC3)OCCOCCO2 [Compound 14] | 2 nM | 7 nM |
| OC1CCN(c2ccc3cc2OCCOCCOc2ccc4c(c2)-c2nc(ncc2CC4)N3)CC1 [Compound 19] | 2.4 nM | 3.6 nM |
| CN1CC=C(c2ccc3cc2OCCOCCOc2ccc4c(c2)-c2nc(ncc2CC4)N3)CC1 [Compound 23] | 1.7 nM | 4.5 nM |
| c1cc(N2CCNCC2)c2cc1Nc1ncc3c(n1)-c1cc(ccc1CC3)OCCOCCO2 [Compound 5] | 1.3 nM | 4.4 nM |
| c1cc(N2CCC(N3CCOCC3)C2)c2cc1Nc1ncc3c(n1)-c1cc(ccc1CC3)OCCOCCO2 (stereo not drawn) [Compound 7] | 6.4 nM | 18 nM |
| c1cc(N2CC3CCC(C2)N3)c2cc1Nc1ncc3c(n1)-c1cc(ccc1CC3)OCCOCCO2 [Compound 42] | 1.1 nM | 3.2 nM |

Continued, values first:

| IC50 (FLT3-ITD) | IC50 (FLT3) | SMILES |
| --- | --- | --- |
| 1.3 nM | 6 nM | c1cc(N2CCC(N3CCCCC3)CC2)c2cc1Nc1ncc3c(n1)-c1cc(ccc1CC3)OCCOCCO2 [Compound 10] |
| 0.51 nM | 1.9 nM | CN1CCN(c2ccc3cc2OCCOCCOc2ccc4c(c2)-c2nc(ncc2CC4)N3)CC1(C)C [Compound 40] |
| 0.79 nM | 3.7 nM | c1cc(N2CC3CNCC3C2)c2cc1Nc1ncc3c(n1)-c1cc(ccc1CC3)OCCOCCO2 (stereo not drawn) [Compound 29] |
| 0.14 nM | 2.5 nM | CN1CCN(c2ccc3cc2OCCOCCOc2ccc4c(c2)-c2nc(ncc2CC4)N3)CC1 [Compound 3] |
| 1 nM | 3.2 nM | CN(C)C1CCN(c2ccc3cc2OCCOCCOc2ccc4c(c2)-c2nc(ncc2CC4)N3)C1 (stereo not drawn) [Compound 30] |
